This is an account of results in patent publication US7091199B1, “Thienoisoxazole phenoxy unsubstituted ethyl and propyl derivatives useful as d4 antagonists” (Aventis Pharmaceuticals Inc., priority 1999, dated 2006).

Counter-ions that a name gives are not always drawn.

The subject of data set [1] is CD-1 or C57 male mice (MK-801 induced stereotypy). The data set can be described thus: MK-801 Stereotypy in Mice. Type of data set: in vivo. The following applies: for inhibition in vivo at 20 mg/kg: po, read-out: Antag. of MK 801 Stereotypy % Inhib. @ 20 mg/kg. On the procedure: Mk-801 dose-dependently induces characteristic stereotypy marked by locomotion and falling behavior. This MK-801 induced behavior can be antagonized by novel neuroleptic agents. This assay can also assess time course effects following drug administration.
CD-1 or C57 male mice are individually placed in activity boxes (8 mice/drug) and allowed to acclimate for 60 minutes. The mice are then administered test compounds either i.p., s.c., or p.o., at 15, 30, or 60 minutes prior to MK-801 (0.2 mg/kg) administration. Mice are observed for the presence of locomotion and falling behaviors 15 minutes following MK-801. For the duration of action studies the test compounds are administered i.p., s.c., or p.o., at 30, 60, 120, 180, and 240 minutes prior to MK-801 administration.

Data set [2] concerns the target T1, human D4 receptor (D4.2 sub-type) (Homo sapiens, UniProt P21917, DEL271-302).
T1 sequence (P21917 with tags, fused parts or gaps DEL271-302): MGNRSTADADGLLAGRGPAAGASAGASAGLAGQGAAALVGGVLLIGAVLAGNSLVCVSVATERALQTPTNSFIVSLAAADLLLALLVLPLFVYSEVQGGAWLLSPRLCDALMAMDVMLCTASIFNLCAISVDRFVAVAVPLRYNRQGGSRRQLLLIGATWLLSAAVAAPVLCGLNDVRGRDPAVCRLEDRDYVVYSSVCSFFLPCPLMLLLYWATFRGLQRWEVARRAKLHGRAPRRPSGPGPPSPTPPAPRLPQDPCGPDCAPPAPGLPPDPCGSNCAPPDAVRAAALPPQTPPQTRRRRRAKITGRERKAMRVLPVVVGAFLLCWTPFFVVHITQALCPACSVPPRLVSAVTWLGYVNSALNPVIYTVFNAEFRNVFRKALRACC
The data set can be described thus: D4 receptor binding assay (3H-spiperone displacement). The following applies: for Ki: 3H-spiperone 0.25 nM, HEK cell membranes, human D4.2, read-out: D4 RBA Ki. The protocol:
D4 receptor-binding affinities of the compounds were evaluated according to their ability to reduce binding of ^3H-spiperone as compared to the reference compound clozapine. The potency of the test compound to reduce ^3H-spiperone binding directly correlated to its binding affinity for the receptor.
[…] (human embryonic kidney) cells stably transfected with human D4 receptor (D4.2 sub-type) were grown in NUNC cell factories for 5 days (75% confluency) without a media change and removed with versene (approximately 19 mg of cells per cell factory tray). The cells were then centrifuged in a Sorval centrifuge for 10 min, 5000 rpm (GS3 rotor) and the pellets quickly frozen in liquid nitrogen and stored at −80° C. until used in binding assay. When used in the assay, cells were thawed on ice for 20 min and then 10 mL of incubation buffer (50 mM Tris, 1 mM EDTA, 4 mM MgCl2, 5 mM KCl, 1.5 mM CaCl2, 120 mM NaCl, pH 7.4) was added. The cells were then vortexed to resuspend pellet and homogenized with a Kinematica, CH-6010 Kriens-LU, homogenizer for 15 seconds at setting 7. Concentration of receptor protein was determined using the Pierce BCA assay.
The incubation was started by the addition of 100 μl (50 μg protein) membrane homogenate to a solution of 300 μl incubation buffer and 100 μl (0.25 nM final conc.) ^3H-spiperone (90 Ci/mmol, Amersham, diluted in borosilicate glass vial) in 96-well polypropylene plates (1 mL per well). The plates were vortexed and incubated at room temperature for 90 minutes. The binding reaction was stopped by filtering using a Packard Harvester. The samples were filtered under vacuum over glass fibre filter plates (Whatman GF/B) presoaked for 2 hours in 0.3% polyethylenimine (PEI) in 50 mM Tris buffer (pH 7.4). The filters were then washed 6 times with 7 mL ice cold 50 mM Tris buffer (pH 7.4). The filter plates were dried overnight and 35 μl of Microscint-O (Packard) was added. The plates were sealed and counted in the Packard Top Count (3 minutes per well).
The incubation was started by the addition of 100 μl (50 μg protein) membrane homogenate to a solution of 200 μl incubation buffer, 100 μl ^3H-spiperone (90 Ci/mmol, Amersham, diluted in borosilicate glass vial to 0.25 nM final conc.) and 100 μl (30 μM final conc.) of fresh dopamine (Research Biochemicals Inc., light protected and dissolved in incubation buffer) in 96-well polypropylene plates (1 mL per well). The plates were vortexed and incubated at room temperature for 90 minutes at which time the binding reaction was stopped by filtering. The filters were washed and counted using the same procedure as in the total binding assay described above to give the non-specific binding value (NSB).
The incubation was started by the addition, in 96-well polypropylene plates (1 mL per well), of 100 μl (50 μg protein) membrane homogenate to a solution of 200 μl incubation buffer, 100 μl (0.25 nM final conc.) ^3H-spiperone (90 Ci/mmol, Amersham, diluted in borosilicate glass vial) and 100 μl of test compound that was prepared from 1 mM stock dissolved in DMSO and stored at −20° C. in polypropylene cryogenic storage vials until dilution in incubation buffer in 96-well polypropylene plates. The plates were vortexed and incubated at room temperature for 90 minutes at which time the binding reaction was stopped by filtering. The filters were washed and counted using the same procedure as in the total binding assay described above to give the displacement binding value (BD).
The test compounds were initially assayed at 1 and 0.1 μM and then at a range of concentrations chosen such that the middle dose would cause about 50% inhibition of ^3H-spiperone binding. Specific binding in the absence of test compound (B0) was the difference of total binding (BT) minus non-specific binding (NSB) and similarly specific binding (in the presence of test compound) (B) was the difference of displacement binding (BD) minus non-specific binding (NSB). […]

For data set [3], the system named is D4.2 variant. To be noted: read-out: EC50 of dopamine; cited from earlier work.
For data set [4], the target named is human D4 receptor with seven repeat units (D4.7 variant). To be noted: read-out: EC50 of dopamine; cited from earlier work.

For the molecule `Cl.c1ccc(CNCCCOc2cccc(-c3noc4ccsc34)c2)cc1` [Compound 1, benzyl-[3-(3-theino[2,3-d]isoxazol-3-yl-phenoxy)-propyl]-amine hydrochloride], the melting point – broadly, the temperature, or range, at which the solid turns liquid – is 195 to 197 °C. Further, the 50% effective dose (ED50) (commonly the midpoint of the dose-response relation) in data set [1] (Mus musculus, PO, MK-801 stereotypy, read-out: In Vivo ED50) was determined as 14.6 mg/kg. Also, the Ki (in general, a dissociation constant, usually derived from enzyme kinetics or from competition with a known ligand) in data set [2] worked out at 0.012 µM.
Take `Clc1ccc(CNCCOc2cccc(-c3noc4ccsc34)c2)cc1` [Compound 18, (4-chloro-benzyl)-[2-(3-thieno[2,3-d]isoxazol-3-yl-phenoxy)-ethyl]-amine]: in data set [1] (Mus musculus, 20 mg/kg), the inhibition in vivo at 20 mg/kg is 37.5%. Besides, in data set [2], the Ki amounted to 0.034 µM.
On the same counts, the results for `Fc1cccc(CNCCOc2cccc(-c3noc4ccsc34)c2)c1` [Compound 19, (3-fluoro-benzyl)-[2-(3-thieno[2,3-d]isoxazol-3-yl-phenoxy)-ethyl]-amine] are 75% and 0.015 µM.
In the case of `Cc1ccc(CNCCOc2cccc(-c3noc4ccsc34)c2)cc1` [Compound 20, (4-methyl-benzyl)-[2-(3-thieno[2,3-d]isoxazol-3-yl-phenoxy)-ethyl]-amine], the inhibition in vivo at 20 mg/kg in data set [1] (Mus musculus, 20 mg/kg) came to 37.5%. The Ki in data set [2] is 0.00527 µM.
As to `c1ccc(CNCCOc2cccc(-c3noc4ccsc34)c2)cc1` [Compound 31, benzyl-[2-(3-thieno[2,3-d]isoxazol-3-yl-phenoxy)-ethyl]-amine hydrochloride], in data set [1] (Mus musculus, 20 mg/kg), the inhibition in vivo at 20 mg/kg worked out at 37.5%. Further, the inhibition (as a rule, the change of the read-out against control, counted positive when it falls) at 1 µM in data set [2] (@ 1 μM test compound, 3H-spiperone binding, read-out: D4 RBA % Inhibition (@ 1 μM)) came to 100%.
Take `Fc1cccc(CNCCOc2cccc(-c3noc4ccsc34)c2)c1.O=C(O)/C=C\C(=O)O` [Compound 32, (3-fluoro-benzyl)-[2-(3-thieno[2,3-d]isoxazol-3-yl-phenoxy)-ethyl]-amine maleate]: the “Antag. of MK 801 Stereotypy % Inhib. @ 20 mg/kg” value in data set [1] (PO, 20 mg/kg) was 62.5%. Also, in data set [2], the Ki amounted to 0.0105 µM.
Consider `NCCc1ccc(O)c(O)c1` [dopamine], for which the half-maximal effective concentration (EC50) (as a rule, the concentration needed to bring the measured effect to its halfway point) is 0.015 µM in data set [3] and 0.04 µM in data set [4].
